# Reference: patent US9890176B2, “Mannose derivatives for treating bacterial infections” (Vertex Pharmaceuticals Incorporated, priority 2013, dated 2018)
# System: bacterial strain LF82 binding to the glycoprotein BSA-(Mannose)3
# Assay: Bacterial Binding Assay (BBA)
# Type: cell-based, Escherichia coli
# Conditions: read-out: Bacterial Binding Assay IC50
# Description: The purpose of the Bacterial Binding Assay (BBA) is to determine the inhibition activity of selective FimH antagonists on the bacterial strain LF82 binding to the glycoprotein BSA-(Mannose)3.
# Below is a list of the Materials used to run the BBA are described below. • 1. LB broth: Supplier: Gibco, #10855 • 2. D-PBS: Supplier: Wisent, #311-425-CL • 3. LB agar plates • 4. 96-well black plate (high binding): Supplier: Costar, #3925 • 5. TopSeal™-A adhesive sealing films; Supplier PerkinElmer, #6005185 • 6. Carbonate-bicarbonate buffer pH 9.6 tablets, Supplier: Medicago, #09-8922-24 • 7. Water, Supplier: Gibco, #15230-162 • 8. Bovine serum albumin (BSA): Supplier: Sigma, #A-7888 • 9. (Man)-3-BSA (α1-3, α1-6 Mannotriose-BSA, 1 mg), V-Labs, #NGP1336, lot#HGDX37-169-1 • 10. Tween 20: Supplier: Sigma, #P9416 • 11. Bright-Glo Luciferase Assay System: Supplier: Promega, #E2610 • 12. LF82/Luciferase strain: Invasive ability of an Escherichia coli strain isolated from the ileal mucosa of a patient with Crohn's disease. Boudeau J, Glasser A L, Masseret E, Joly B, Darfeuille-Michaud A, Infect Immun. 1999, 67(9), 4499-509
# Solutions and buffers used to run the BBA are described below. • 1. 0.04M carbonate-bicarbonate buffer (coating buffer) • 2. […] 1 mg of (Man)-3-BSA in 25 mL of water. • 3. 4000 ng/mL BSA • 4. 40 ng/mL BSA • 5. 1 μg/mL BSA-(Man)3: 150 μL of 40 ng/mL BSA-(Man)3+5.85 mL of 40 ng/mL BSA • 6. 0.5 μg/mL BSA-(Man)3 in 0.02M carbonate-bicarbonate buffer. • 7. 20 ng/mL BSA in 0.02M carbonate-bicarbonate buffer • 8. Blocking buffer (2% BSA/DPBS): 1 g of BSA in 50 mL D-PBS • 9. 2× binding buffer (0.2% BSA/D-PBS): 5 mL of blocking buffer+45 mL D-PBS. • 10. Washing buffer (D-PBS/0.01% Tween 20): 10 μL of Tween 20 in 100 mL D-PBS. • 11. 1× Bright-Glo Luciferase substrate:Dilute 1:1 the Bright-Glo Luciferase Assay System with D-PBS The experimental protocol to run the BBA is described below.
# Overnight culture of LF82/Luciferase strain: Into two Falcon 50 mL tubes, add 20 mL of LB+20 μL of 50 mg/mL Kanamycin and inoculate with a loop from glycerol stock of the LF82/Luciferase strain. Incubate overnight at 37° C. with no shaking.
# Glycoprotein coating of 96-well plates: Add 100 μL/well of 0.5-2 μg/mL BSA-(Man)3. 20 μg/mL BSA is used as the control background. Seal plate using an adhesive sealing film and incubate overnight at room temperature. Wash the 96-well plate three times with 150 μL/well of D-PBS, add 170 μL/well of blocking solution and incubate 45 min (minimum) at room temperature.
# Preparation of bacterial suspension: Mix the two cultures tubes (40 mL) and perform a 1:10 dilution in LB (900 μl LB+100 μl culture. Measure optical density (OD) of the bacterial cultures. OD1 ˜5×10^8 cells/mL. Centrifuge LF82 culture for 20 min at 3500 rpm at room temperature. Re-suspend bacterial pellet in D-PBS and centrifuge again for 20 min at 3500 rpm. Re-suspend bacterial pellet in D-PBS to obtain a bacterial concentration of 2×10^9 bacteria/mL. Dilute 1/10 in D-PBS to obtain a final bacterial concentration of 2×10^8 bacteria/mL (=107 bacteria/50 μL). Perform 1/10 serial dilutions in LB of each bacterial suspension, plate 10 μL of dilutions on LB agar plates (final dilutions of 10^−7) and incubate overnight at 37° C. and count CFUs to determine the actual bacteria density in the assay.
# Bacterial binding assay: Add 147 μL 2× binding buffer to compound plate (containing 3 μL of compound). After blocking step is performed (at least 45 min), wash plates three times with 200 μL/well of D-PBS. With a 100 μL multichannel manual pipettor, add 50 μL/well of compound diluted in 2× binding buffer. With a 100 μL multichannel manual pipettor, add 50 μL/well of bacterial suspension. Agitate at slow speed for 1 min and incubate 40-75 min at room temperature. Wash 5 times with 150 μL/well of washing buffer and then once with D-PBS. Add 100 μL/well of 1× Bright-Glo Luciferase substrate. […]
row,SMILES,IC50 [nM]
1,CNC(=O)c1cccc(-c2ccc(O[C@H]3O[C@H](CO)[C@@H](O)[C@H](O)[C@]3(C)O)cc2F)c1 [Compound 39],265 ± 135
2,"C[C@@]1(O)[C@@H](Oc2ccc(-c3ccc(O[C@H]4O[C@H](CO)[C@@H](O)[C@H](O)[C@]4(C)O)c(OC(F)(F)F)c3)cc2OC(F)(F)F)O[C@H](CO)[C@@H](O)[C@@H]1O [Example 114, (2R,3S,4S,5S,6R)-6-(hydroxymethyl)-3-methyl-2-[2-(trifluoromethoxy)-4-[3-(trifluoromethoxy)-4-[(2R,3S,4S,5S,6R)-3,4,5-trihydroxy-6-(hydroxymethyl)-3-methyl-tetrahydropyran-2-yl]oxy-phenyl]phenoxy]tetrahydropyran-3,4,5-triol]",1 ± 1
3,COc1ccc2c(c1)CC[C@]1(O2)O[C@H](CO)[C@@H](O)[C@H](O)[C@@H]1O [compound 32],333 ± 100
4,"CNC(=O)c1cccc(-c2ccc(O[C@H]3O[C@H](CO)[C@@H](O)[C@H](O)[C@]3(C)O)c(OC)c2)c1 [Example 17, 3-[3-methoxy-4-[(2R,3S,4S,5S,6R)-3,4,5-trihydroxy-6-(hydroxymethyl)-3-methyl-tetrahydropyran-2-yl]oxy-phenyl]-N-methyl-benzamide]",27 ± 8
5,CNC(=O)c1cccc(-c2ccc(O[C@H]3O[C@H](CO)[C@@H](O)[C@](C)(O)[C@@H]3O)c(C)c2)c1 [compound 25],68 ± 18
6,"Cc1cc(-c2cc(-c3ccc(O[C@H]4O[C@H](CO)[C@@H](O)[C@H](O)[C@]4(C)O)c(C)c3)cc(-c3ccc(O[C@H]4O[C@H](CO)[C@@H](O)[C@H](O)[C@]4(C)O)c(C)c3)c2)ccc1O[C@H]1O[C@H](CO)[C@@H](O)[C@H](O)[C@]1(C)O [Example 118, (2R,3S,4S,5S,6R)-2-[4-[3,5-bis[3-methyl-4-[(2R,3S,4S,5S,6R)-3,4,5-trihydroxy-6-(hydroxymethyl)-3-methyl-tetrahydropyran-2-yl]oxy-phenyl]phenyl]-2-methyl-phenoxy]-6-(hydroxymethyl)-3-methyl-tetrahydropyran-3,4,5-triol]",2 ± 0.7
7,Cc1cc(-c2ccc3cc[nH]c3c2)ccc1O[C@H]1O[C@H](CO)[C@@H](O)[C@H](O)[C@]1(C)O [Compound 89],455 ± 95
8,Cc1cc(-c2cccc(S(=O)(=O)NC(C)(C)C)c2)ccc1O[C@H]1O[C@H](CO)[C@@H](O)[C@H](O)[C@]1(C)O [Compound 86],26 ± 8
9,"Cc1cc(-c2cncc(-c3ccc(O[C@H]4O[C@H](CO)[C@@H](O)[C@H](O)[C@]4(C)O)c(C)c3)c2)ccc1O[C@H]1O[C@H](CO)[C@@H](O)[C@H](O)[C@]1(C)O [Example 119, (2R,3S,4S,5S,6R)-6-(hydroxymethyl)-3-methyl-2-[2-methyl-4-[5-[3-methyl-4-[(2R,3S,4S,5S,6R)-3,4,5-trihydroxy-6-(hydroxymethyl)-3-methyl-tetrahydropyran-2-yl]oxy-phenyl]-3-pyridyl]phenoxy]tetrahydropyran-3,4,5-triol]",0.6 ± 0.2
10,CNC(=O)c1cccc(-c2ccc(O[C@H]3O[C@H](CO)[C@@H](O)[C@H](O)[C@]3(C)O)cc2Cl)c1 [Compound 40],220 ± 110
11,Cc1cc(-c2cccc(S(N)(=O)=O)c2)ccc1O[C@H]1O[C@H](CO)[C@@H](O)[C@H](O)[C@]1(C)O [Compound 84],10 ± 2
12,Cc1cc(-c2cccc(C(=O)NC(C)(CO)CO)c2)ccc1O[C@H]1O[C@H](CO)[C@@H](O)[C@H](O)[C@]1(C)O [Compound 61],22 ± 6
13,Cc1cc(-c2cccc(C(=O)NCCN3CCOCC3)c2)ccc1O[C@H]1O[C@H](CO)[C@@H](O)[C@H](O)[C@]1(C)O [Compound 63],12 ± 3
14,CNC(=O)c1cccc(-c2ccc(Cl)c(O[C@H]3O[C@H](CO)[C@@H](O)[C@H](O)[C@]3(C)O)c2)c1 [Compound 44],43 ± 12
15,Cc1cc(-c2cccc(C(=O)NCCN(C)C)c2)ccc1O[C@H]1O[C@H](CO)[C@@H](O)[C@H](O)[C@]1(C)O [Compound 67],15 ± 6
16,Cc1cc(-c2ccc(O[C@H]3O[C@H](CO)[C@@H](O)[C@H](O)[C@]3(C)O)c(C)c2)ccc1F [Compound 87],87 ± 33
17,Cc1cc(-c2cccc(C(=O)N3CCCC3)c2)ccc1O[C@H]1O[C@H](CO)[C@@H](O)[C@H](O)[C@]1(C)O [Compound 70],30 ± 1
18,Cc1cc(-c2cccc(C(=O)N(CCO)C(CO)(CO)CO)c2)ccc1O[C@H]1O[C@H](CO)[C@@H](O)[C@H](O)[C@]1(C)O [Compound 71],8 ± 2
19,COC(=O)c1cccc(-c2ccc(O[C@H]3O[C@H](CO)[C@@H](O)[C@H](O)[C@]3(C)O)c(C)c2)c1 [Compound 57],17 ± 4
20,Cc1cc(-c2ccc(F)c(F)c2)ccc1O[C@H]1O[C@H](CO)[C@@H](O)[C@H](O)[C@]1(C)O [Compound 88],2950 ± 150
21,CNC(=O)c1cccc(-c2ccc(O[C@H]3O[C@H](CO)[C@@H](O)[C@H](O)[C@@]3(O)COCCO)c(C)c2)c1 [Compound 50],830 ± 170
22,"C[C@@]1(O)[C@@H](Oc2ccc(-c3ccc(O[C@H]4O[C@H](CO)[C@@H](O)[C@H](O)[C@]4(C)O)c(F)c3)cc2F)O[C@H](CO)[C@@H](O)[C@@H]1O [Example 112, (2R,3S,4S,5S,6R)-2-[2-fluoro-4-[3-fluoro-4-[(2R,3S,4S,5S,6R)-3,4,5-trihydroxy-6-(hydroxymethyl)-3-methyl-tetrahydropyran-2-yl]oxy-phenyl]phenoxy]-6-(hydroxymethyl)-3-methyl-tetrahydropyran-3,4,5-triol]",68 ± 11
23,COc1c(F)cc(F)cc1-c1ccc(O[C@H]2O[C@H](CO)[C@@H](O)[C@H](O)[C@]2(C)O)c(C)c1 [Compound 99],38 ± 8
24,CC[C@H](O)[C@H]1O[C@H](Oc2ccc(-c3cccc(C(=O)NC)c3)cc2C)[C@@H](O)[C@@H](O)[C@@H]1O [Compound 31],> 10000
25,CNC(=O)c1cccc(-c2ccc(O[C@H]3O[C@H](CO)[C@@H](O)[C@H](O)[C@]3(C)O)cc2OC)c1 [Compound 41],220 ± 110
26,"Cc1cc(-c2ccnc(-c3ccc(O[C@H]4O[C@H](CO)[C@@H](O)[C@H](O)[C@]4(C)O)c(C)c3)c2)ccc1O[C@H]1O[C@H](CO)[C@@H](O)[C@H](O)[C@]1(C)O [Example 122, (2R,3S,4S,5S,6R)-6-(hydroxymethyl)-3-methyl-2-[2-methyl-4-[2-[3-methyl-4-[(2R,3S,4S,5S,6R)-3,4,5-trihydroxy-6-(hydroxymethyl)-3-methyl-tetrahydropyran-2-yl]oxy-phenyl]-4-pyridyl]phenoxy]tetrahydropyran-3,4,5-triol]",0.6 ± 0.3
27,CNC(=O)c1cc(F)cc(-c2ccc(O[C@H]3O[C@H](CO)[C@@H](O)[C@H](O)[C@]3(C)O)c(Cl)c2)c1 [Compound 56],24 ± 0.5
28,COc1ccc(OC)c(-c2ccc(O[C@H]3O[C@H](CO)[C@@H](O)[C@H](O)[C@]3(C)O)c(C)c2)c1 [Compound 95],24 ± 12
29,Cc1cc(-c2ccc(O[C@H]3O[C@H](CO)[C@@H](O)[C@H](O)[C@]3(C)O)c(C)c2)ccc1O [Compound 104],69 ± 23
